Series [1] can be described thus: aqueous solubility. Conditions: water. The class given is physicochemical.
Series [2] deals with breast carcinoma BO. Description: in vivo antitumor test, human breast carcinoma BO xenotransplanted in nude mice. The settings on record: for Relative tumor volume (T/C %) / evaluation: BO. How it is done: (§1) In one typical set of experiments, four human breast carcinomas xenotransplanted into female Ncr: nu/nu (Taconic, Germantown, U.S.A.) or male Bom: NMRI-nu/nu mice (Bomholtgaard, Ry, Denmark) were used for the evaluation of antitumor activity. Mice weighing 20-25 g at the start of experiments were held under sterile conditions at 24-26° C., 50% relative humidity and 12 hours light-dark rhythm in laminar flow shelves. The animals received autoclaved food and bedding; the drinking water was filtered and acidified (pH4.0).
The following breast carcinoma cell lines were used: BO; MCF-7 (NCI, U.S.A.); MT-1 and MT-3. The tumors BO and MCF-7 are ER^+ models: the carcinomas MT-1 and MT-3 are ER^- ones. Tumors were transplanted subcutaneously (s.c.) as pieces (2×2 mm) into the left flank of 5-8 nude mice/experimental group. Drug treatment was initiated when the tumors reached a diameter of 4-5 mm. Compounds were solubized with Tween 80 (maximum 10% of final volume) and suspended in saline. Suspensions were preparted freshly for each drug administration and injected in a volume of 0.2 mL/20 g body weight employing a once-weekly schedule (x3). Tumor size was measured twice weekly with a caliper. Median tumor volume/group was related to the first treatment day and expressed as Relative Tumor Volume (RTV). For the estimation of toxicity, body weight was determined twice weekly and the mean percentage body weight change (BCC) was calculated. In one experiment blood was obtained from the retroorbital venous plexus of mice and blood cells were determined with a Coulter counter (Model T41). […]

A short description of series [3]: estimation of toxicity in tumor-bearing nude mice (body weight, blood cells, survival). In kind it is in vivo, mouse. Conditions: for BWC (body weight change): BO. How it is done: as §1
The following breast carcinoma cell lines were used: BO; MCF-7 (NCI, U.S.A.); MT-1 and MT-3. The tumors BO and MCF-7 are ER^+ models: the carcinomas MT-1 and MT-3 are ER^- ones. Tumors were transplanted subcutaneously (s.c.) as pieces (2×2 mm) into the left flank of 5-8 nude mice/experimental group. Drug treatment was initiated when the tumors reached a diameter of 4-5 mm. Compounds were solubized with Tween 80 (maximum 10% of final volume) and suspended in saline. Suspensions were preparted freshly for each drug administration and injected in a volume of 0.2 mL/20 g body weight employing a once-weekly schedule (x3). Tumor size was measured twice weekly with a caliper. Median tumor volume/group was related to the first treatment day and expressed as Relative Tumor Volume (RTV). For the estimation of toxicity, body weight was determined twice weekly and the mean percentage body weight change (BCC) was calculated. In one experiment blood was obtained from the retroorbital venous plexus of mice and blood cells were determined with a Coulter counter (Model T41).

Series [4] relates to H69/P. Briefly: in vitro inhibition of growth of human lung cancer cell line H69/P (Table 1). The class given is cell-based. From the text:
(§2) Tables 1 to 4 at the end of the present description show in vitro test results obtained in various sets of experiments for the cytotoxic activity of several of the benzazole compounds concerned, including also for reference results for the compound CJM 126 and comparative results for compound DF129, when tested against a range of tumor cell lines which includes ovarian, lung and certain colon and renal cancer cells from the National Cancer Institute (USA) collection. As usual the results are expressed in terms of IS50 values (concentration or dosage required to reduce cell growth or proliferation by 50%) calculated from dose-effect curves plotted for cultures of the cells in question.
(§3) In carrying out the in vitro studies, the cytotoxicity assays may be carried out by a method corresponding substantially to the following example:
(§4) Cells were maintained in a continuous logarithmic culture in Dublecco's medium supplemented with 10% fetal calf serum and penicillin (100 IU/ml) and streptomycin ([…]). The cells were mildly trypsinized for passage and for use in assays. On day zero, 100 μl of trypsinized tumor cells (1×10^4 /ml) were plated in the wells of 96-well flat-bottom microtiter plates. The plates were incubated for 2 days at 37° C. and 5% CO2 in air to allow the cells to adhere and resume exponential growth prior to the addition of drugs.
(§5) On day two 50 μl of the highest drug concentration was added to the wells of column 12 and from there serially diluted 3-fold to column 1 by serial transfer of 50 μl using an 8-channel micropipette. The final volume of column 1 was adjusted to 100 μl. No additions were made to the wells of rows A and B, which served as controls. The plates were further incubated for 5 days at 37° C. and 5% CO2 in air. Each compound was tested in duplicate.
(§6) On day 7 the test was terminated by the addition of 100 μl saline containing 0.002% w/v propidium iodide (Sigma), 0.3% drawing ink (Staedtler "Marsmatic 745"--Trade Mark) and 0.5% Triton X-100. The plates were kept at 4° C. overnight before reading on an inverted microscope equipped with an automated scanning stage. Fluorescence intensity was measured in arbitrary units by a photomultiplier. An HP-87 computer controlled the movement of the stage and also collected and processed the data from the multiplier.
(§7) For each compound tested a dose-response curve was obtained and the IC50 value (the drug concentration at 50% inhibition of cell growth) was calculated.

For series [5], the system named is LX4. Description: in vitro inhibition of growth of human lung cancer cell line LX4 (Table 1). In kind it is cell-based.
Text: as §2, §3, §4, §5, §6, §7

Series [6] deals with L23/R. Description: in vitro inhibition of growth of human lung cancer cell line L23/R (Table 1). The class given is cell-based.
Text: as §2, §3, §4, §5, §6, §7

Series [7] relates to human breast cancer cell lines. Conditions: words, prior PCT compound; cited from earlier work.
Series [8] relates to lung cancer cell lines. Briefly: in vitro inhibition of lung cancer cell lines. In kind it is cell-based, human. Conditions: words, Table 1.
Text: as §2
In carrying out the in vitro studies, the cytotoxicity assays may be carried out by a method corresponding substantially to the following example: […]
On day 7 the test was terminated by the addition of 100 μl saline containing 0.002% w/v propidium iodide (Sigma), 0.3% drawing ink (Staedtler "Marsmatic 745"--Trade Mark) and 0.5% Triton X-100. The plates were kept at 4° C. overnight before reading on an inverted microscope equipped with an automated scanning stage. Fluorescence intensity was measured in arbitrary units by a photomultiplier. […]

Series [9] relates to MOR/R. Briefly: in vitro inhibition of growth of human lung cancer cell line MOR/R (Table 1). The class given is cell-based. Conditions: MOR/R (multidrug resistant line).
Text: as §2, §3, §4, §5, §6, §7

The subject of series [10] is L23/P. Description: in vitro inhibition of growth of human lung cancer cell line L23/P (Table 1). In kind it is cell-based.
Text: as §2, §3, §4, §5, §6, §7

Series [11] deals with MOR/P. Description: in vitro inhibition of growth of human lung cancer cell line MOR/P (Table 1). The settings on record: MOR/P (parental line). The class given is cell-based.
Text: as §2, §3, §4, §5, §6, §7

The test system of series [12] is CH1-cisR. Description: in vitro activity against human ovarian cell line CH1-cisR (Table 2). The class given is cell-based.
Text: (§8) As usual the results are expressed in terms of IS50 values (concentration or dosage required to reduce cell growth or proliferation by 50%) calculated from dose-effect curves plotted for cultures of the cells in question.
as §3, §4, §5
(§9) The plates were kept at 4° C. overnight before reading on an inverted microscope equipped with an automated scanning stage. Fluorescence intensity was measured in arbitrary units by a photomultiplier. An HP-87 computer controlled the movement of the stage and also collected and processed the data from the multiplier.

For series [13], the system named is A2780. Briefly: in vitro activity against human ovarian cell line A2780 (Table 2). In kind it is cell-based. Conditions: A2780 (parental line).
Text: as §8, §3, §4, §5, §9

Series [14] concerns CH1. Briefly: in vitro activity against human ovarian cell line CH1 (Table 2). The class given is cell-based.
Text: as §8, §3, §4, §5, §9

The test system of series [15] is A2780-cisR. Description: in vitro activity against human ovarian cell line A2780-cisR (Table 2). Conditions: A2780-cisR (platinum-resistant). In kind it is cell-based.
Text: as §8, §3, §4, §5, §9

Series [16] has as its system ER-tumors MT-1 and MT-3. The settings on record: words, background statement; cited from earlier work.
Where [17] appears, read: qd 27, 34, 41, 20 mg/Kg/inj. i.p.
Setting [18] is: qd 27, 34, 41, 200 mg/Kg/inj. i.p. (Table 5).
Setting [19] is: qd 27, 34, 41, 1 mg/Kg/inj. i.p.
[20] abbreviates: qd 27, 34, 41, 10 mg/Kg/inj. i.p.
[21] abbreviates: qd 27, 34, 41, 100 mg/Kg/inj. i.p.

For orientation: solubility means the concentration that dissolves in the medium under given conditions. Read a low solubility as a poorly soluble substance. Usually IC50 stands for the concentration needed to halve the response being measured.

The structures appear in SMILES notation. Values after ≈ are worked out from the molar mass of the structure shown.

In turn, `O=S(=O)([O-])Nc1ccc(-c2nc3ccccc3s2)cc1.[Na+]` had a solubility in series [1] of roughly 10000 µg/mL.
`Nc1cccc(-c2nc3ccccc3s2)c1` [2-(3-Aminophenyl)-benzothiazole]: the “Relative tumor volume (T/C %)” value was 78% in series [2] (qd 27, 34, 41, 2 mg/Kg/inj. i.p., not marked significant); 48% in series [2] (qd 27, 34, 41, 20 mg/Kg/inj. i.p., * significant versus controls (p < 0.05)); 32% in series [2] (qd 27, 34, 41, 200 mg/Kg/inj. i.p. (Table 5), * significant versus controls (p < 0.05)). Further, the evaluation entry in series [2] (setting [17]) is listed as “+ (T/C % = 36-50%)”; in series [2] (setting [18]) it was “++ (T/C = 21-35%)”. In series [2] (words), the “inhibitory effects against the breast carcinoma BO” value was “elicited inhibitory effects”. Also, the “BWC (body weight change)” value is reported as 2% in series [3] (qd 27, 34, 41, 2 mg/Kg/inj. i.p.); -3% in series [3] (setting [17]); -6% in series [3] (setting [18]).
With `Nc1ccc(-c2nc3ccccc3s2)cc1` [CJM126, 2-(4'-Aminophenyl)benzothiazole], the IC50 in series [4], in [5], in series [6], in [9], in [10] and in [11] was greater than 10 µM throughout. Moreover, the “specific inhibitory activity in respect of certain human breast cancer cell lines” value in [7] is recorded as “remarkably high specific inhibitory activity”. In series [8], the “activity against lung cancer cell lines” value is reported as “not very sensitive”. For the same compound, the evaluation entry is given as “+ (T/C % = 36-50%)” in series [2] (setting [19]), “(+) (T/C % ≥ 51%)” in [2] (setting [20]) and “(+) (T/C % ≥ 51%)” in series [2] (setting [21]). The “Relative tumor volume (T/C %)” value in series [2] (qd 27, 34, 41, 1 mg/Kg/inj. i.p., * significant versus controls (p < 0.05)) is given as 41%; in series [2] (qd 27, 34, 41, 10 mg/Kg/inj. i.p., * significant versus controls (p < 0.05)), 52%; in [2] (qd 27, 34, 41, 100 mg/Kg/inj. i.p., * significant versus controls (p < 0.05)) it was 52%. The “influence on tumor growth, dose dependence” value in series [2] (words) is recorded as “relatively independent of dose”. For the same compound, the “inhibitory effects against the breast carcinoma BO” value in [2] (words) is “elicited inhibitory effects”. In addition, the solubility in series [1] is 3.8 µg/mL (≈ 16.8 µM). Also, the “BWC (body weight change)” value in [3] (setting [19]) was -5%; in series [3] (setting [20]), -4%; in [3] (setting [21]), -7%. For the same compound, the “influence on body weight, dose dependence” value in series [3] (words) is listed as “relatively independent of dose”.
In the case of `N.N.[Cl][Pt][Cl]` [Cisplatin], the IC50 in series [12] was 0.7 µM; in series [13], 0.33 µM; in series [14], 0.1 µM; in series [15], 5.2 µM. Moreover, in [16], the “responsiveness of MT-1 and MT-3 tumors to drug” value is “only modestly sensitive”.

These data come from patent US6034246A, “2-arylbenzazole compounds” (Cancer Research Campaign Technology Limited, priority 1995, dated 2000).
